Molecular target: Helios (Homo sapiens, UniProt Q96SW2+Q9UKS7)
Assay: Helios Human T Regulatory Cells Degradation Assay
Assay type: cell-based
Parameters: fluorescently labelled antibodies against Helios in 1× Permeabilization buffer; endogenous in cells; host or cells: cryopreserved human T regulatory cells
Conditions: cryopreserved human T regulatory cells, incubated 20 hours, Helios-APC antibody staining, flow cytometry; read-out: hTreg Helios DC50
Summary of the method: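 Cryopreserved human Treg cells thawed in RPMI+10% FBS+20 ng/mL IL-2, rested 3 h, then incubated with compound 20 hours at 37° C, 5% CO2. Near-IR viability stain, permeabilization, flow cytometry read-out.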

Chain of Helios (Q9UKS7 whole entry): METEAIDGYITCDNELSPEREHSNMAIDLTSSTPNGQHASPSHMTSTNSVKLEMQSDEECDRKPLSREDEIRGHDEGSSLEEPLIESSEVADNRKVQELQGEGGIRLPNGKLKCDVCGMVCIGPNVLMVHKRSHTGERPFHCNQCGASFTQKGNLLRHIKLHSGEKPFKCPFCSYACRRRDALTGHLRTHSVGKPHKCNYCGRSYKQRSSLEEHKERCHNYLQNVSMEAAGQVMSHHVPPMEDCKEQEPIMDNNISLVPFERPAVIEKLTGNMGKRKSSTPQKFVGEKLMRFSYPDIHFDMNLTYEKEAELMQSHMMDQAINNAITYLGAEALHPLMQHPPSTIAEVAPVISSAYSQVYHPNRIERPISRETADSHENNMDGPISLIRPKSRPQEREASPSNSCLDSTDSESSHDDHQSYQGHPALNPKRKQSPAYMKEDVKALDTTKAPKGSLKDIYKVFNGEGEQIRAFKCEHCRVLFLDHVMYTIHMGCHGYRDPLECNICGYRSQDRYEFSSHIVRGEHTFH
Chain of Helios (Q96SW2 whole entry): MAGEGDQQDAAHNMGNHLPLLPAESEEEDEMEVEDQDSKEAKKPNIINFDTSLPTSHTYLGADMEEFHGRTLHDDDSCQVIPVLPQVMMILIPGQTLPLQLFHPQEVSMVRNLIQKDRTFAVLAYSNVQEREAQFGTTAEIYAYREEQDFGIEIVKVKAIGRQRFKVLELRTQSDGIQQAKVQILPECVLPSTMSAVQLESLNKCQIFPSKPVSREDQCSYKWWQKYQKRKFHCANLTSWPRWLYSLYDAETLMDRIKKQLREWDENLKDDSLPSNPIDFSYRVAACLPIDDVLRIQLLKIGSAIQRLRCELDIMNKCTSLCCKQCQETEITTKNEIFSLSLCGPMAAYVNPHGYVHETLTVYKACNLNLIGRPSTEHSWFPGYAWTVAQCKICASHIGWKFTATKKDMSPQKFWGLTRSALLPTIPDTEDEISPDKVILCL
Chain of Helios (Q16531 whole entry partner): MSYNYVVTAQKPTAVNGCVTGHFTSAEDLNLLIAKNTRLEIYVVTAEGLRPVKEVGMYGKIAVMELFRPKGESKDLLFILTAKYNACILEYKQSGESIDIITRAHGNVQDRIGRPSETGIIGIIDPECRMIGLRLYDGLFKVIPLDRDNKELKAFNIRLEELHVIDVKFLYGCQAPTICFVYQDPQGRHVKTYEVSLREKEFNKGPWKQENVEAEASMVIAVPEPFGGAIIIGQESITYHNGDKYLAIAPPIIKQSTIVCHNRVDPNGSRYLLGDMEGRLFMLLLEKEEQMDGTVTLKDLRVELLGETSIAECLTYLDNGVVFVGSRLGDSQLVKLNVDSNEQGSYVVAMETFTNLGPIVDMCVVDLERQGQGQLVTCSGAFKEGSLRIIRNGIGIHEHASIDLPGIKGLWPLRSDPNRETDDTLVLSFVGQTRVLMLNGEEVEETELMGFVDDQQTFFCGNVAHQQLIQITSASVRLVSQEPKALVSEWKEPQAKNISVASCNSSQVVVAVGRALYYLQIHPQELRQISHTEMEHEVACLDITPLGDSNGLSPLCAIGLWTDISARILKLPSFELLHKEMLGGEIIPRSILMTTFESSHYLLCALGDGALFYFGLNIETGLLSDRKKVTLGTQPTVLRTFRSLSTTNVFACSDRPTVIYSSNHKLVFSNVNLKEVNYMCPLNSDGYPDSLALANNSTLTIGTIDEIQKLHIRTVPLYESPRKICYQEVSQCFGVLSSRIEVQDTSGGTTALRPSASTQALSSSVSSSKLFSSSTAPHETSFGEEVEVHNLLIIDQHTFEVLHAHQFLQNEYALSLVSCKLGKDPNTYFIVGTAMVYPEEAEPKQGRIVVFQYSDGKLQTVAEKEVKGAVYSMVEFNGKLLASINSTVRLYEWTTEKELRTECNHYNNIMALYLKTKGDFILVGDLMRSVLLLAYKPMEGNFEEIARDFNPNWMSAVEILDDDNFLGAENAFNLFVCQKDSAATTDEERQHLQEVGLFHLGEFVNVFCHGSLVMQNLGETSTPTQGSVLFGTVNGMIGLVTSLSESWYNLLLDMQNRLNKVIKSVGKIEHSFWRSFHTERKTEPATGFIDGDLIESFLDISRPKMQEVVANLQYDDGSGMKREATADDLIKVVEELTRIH

Compound | DC50 [nM]
Cc1ccc(C)c(C2(O)CCN(Cc3ccnc(-c4ccc5c(c4)CN(C4CCC(=O)NC4=O)C5=O)c3F)C2)c1 (centres unmarked) [Example 256, 3-(5-(4-((3-(2,5-dimethylphenyl)-3-hydroxypyrrolidin-1-yl)methyl)-3-fluoropyridin-2-yl)-1-oxoisoindolin-2-yl)piperidine-2,6-dione] | 1140
O=C1CCC(N2Cc3cc(-c4nccc(CN5CCC(O)(c6ccccc6)C5)c4F)ccc3C2=O)C(=O)N1 (centres unmarked) [Example 257, 3-(5-(3-fluoro-4-((3-hydroxy-3-phenylpyrrolidin-1-yl)methyl)pyridin-2-yl)-1-oxoisoindolin-2-yl)piperidine-2,6-dione] | ≥ 10000
O=C1CCC(N2Cc3cc(-c4nccc(CN5CCn6c(nnc6C(F)(F)F)C5)c4F)ccc3C2=O)C(=O)N1 (centres unmarked) [Example 266, 3-(5-(3-fluoro-4-((3-(trifluoromethyl)-5,6-dihydro-[1,2,4]triazolo[4,3-a]pyrazin-7(8H)-yl)methyl)pyridin-2-yl)-1-oxoisoindolin-2-yl)piperidine-2,6-dione] | ≥ 10000
O=C1CCC(N2Cc3cc(-c4nccc(CN5CCc6c(ccnc6Cl)C5)c4F)ccc3C2=O)C(=O)N1 (centres unmarked) [Example 267, 3-(5-(4-((5-chloro-3,4-dihydro-2,6-naphthyridin-2(1H)-yl)methyl)-3-fluoropyridin-2-yl)-1-oxoisoindolin-2-yl)piperidine-2,6-dione] | ≥ 10000
O=C1CCC(N2Cc3cc(-c4nccc(CN5CCc6cccc(Cl)c6C5)c4F)ccc3C2=O)C(=O)N1 (centres unmarked) [Example 268, 3-(5-(4-((8-chloro-3,4-dihydroisoquinolin-2(1H)-yl)methyl)-3-fluoropyridin-2-yl)-1-oxoisoindolin-2-yl)piperidine-2,6-dione] | ≥ 10000
CC(=O)N1CCCC12CCN(Cc1ccnc(-c3ccc4c(c3)CN(C3CCC(=O)NC3=O)C4=O)c1F)C2 (centres unmarked) [Example 270, 3-(5-(4-((1-acetyl-1,7-diazaspiro[4.4]nonan-7-yl)methyl)-3-fluoropyridin-2-yl)-1-oxoisoindolin-2-yl)piperidine-2,6-dione] | ≥ 10000
COC(=O)N1CCCC12CCN(Cc1ccnc(-c3ccc4c(c3)CN(C3CCC(=O)NC3=O)C4=O)c1F)C2 (centres unmarked) [Example 271, methyl 7-((2-(2-(2,6-dioxopiperidin-3-yl)-1-oxoisoindolin-5-yl)-3-fluoropyridin-4-yl)methyl)-1,7-diazaspiro[4.4]nonane-1-carboxylate] | ≥ 10000
CC(=O)N1CCC2(CN(Cc3ccnc(-c4ccc5c(c4)CN(C4CCC(=O)NC4=O)C5=O)c3F)C2)C1 (centres unmarked) [Example 272, 3-(5-(4-((6-acetyl-2,6-diazaspiro[3.4]octan-2-yl)methyl)-3-fluoropyridin-2-yl)-1-oxoisoindolin-2-yl)piperidine-2,6-dione] | 280
COC(=O)N1CCC2(CN(Cc3ccnc(-c4ccc5c(c4)CN(C4CCC(=O)NC4=O)C5=O)c3F)C2)C1 (centres unmarked) [Example 273, methyl 2-((2-(2-(2,6-dioxopiperidin-3-yl)-1-oxoisoindolin-5-yl)-3-fluoropyridin-4-yl)methyl)-2,6-diazaspiro[3.4]octane-6-carboxylate] | 280
CC(=O)N1CC2CCCN(Cc3ccnc(-c4ccc5c(c4)CN(C4CCC(=O)NC4=O)C5=O)c3F)C2C1 (centres unmarked) [Example 274, 3-(5-(4-((6-acetyloctahydro-1H-pyrrolo[3,4-b]pyridin-1-yl)methyl)-3-fluoropyridin-2-yl)-1-oxoisoindolin-2-yl)piperidine-2,6-dione] | ≥ 10000
COC(=O)N1CC2CCCN(Cc3ccnc(-c4ccc5c(c4)CN(C4CCC(=O)NC4=O)C5=O)c3F)C2C1 (centres unmarked) [Example 275, methyl 1-((2-(2-(2,6-dioxopiperidin-3-yl)-1-oxoisoindolin-5-yl)-3-fluoropyridin-4-yl)methyl)octahydro-6H-pyrrolo[3,4-b]pyridine-6-carboxylate] | ≥ 10000

More lines, now with the values ahead:

DC50 [nM] | Compound
≥ 10000 | O=C1CCC(N2Cc3cc(-c4nccc(CN5CC[C@@H](F)C5)c4F)ccc3C2=O)C(=O)N1 (stereo partly drawn) [Example 258, 3-(5-(3-fluoro-4-(((R)-3-fluoropyrrolidin-1-yl)methyl)pyridin-2-yl)-1-oxoisoindolin-2-yl)piperidine-2,6-dione]
≥ 10000 | O=C1CCC(N2Cc3cc(-c4nccc(CN5CCc6oncc6C5)c4F)ccc3C2=O)C(=O)N1 (centres unmarked) [Example 259, 3-(5-(4-((6,7-dihydroisoxazolo[4,5-c]pyridin-5(4H)-yl)methyl)-3-fluoropyridin-2-yl)-1-oxoisoindolin-2-yl)piperidine-2,6-dione]
140 | O=C1CCC(N2Cc3cc(-c4nccc(CN5CCC(F)CC5)c4F)ccc3C2=O)C(=O)N1 (centres unmarked) [Example 260, 3-(5-(3-fluoro-4-((4-fluoropiperidin-1-yl)methyl)pyridin-2-yl)-1-oxoisoindolin-2-yl)piperidine-2,6-dione]
≥ 10000 | O=C1CCC(N2Cc3cc(-c4nccc(CN5CCC(F)(F)CC5)c4F)ccc3C2=O)C(=O)N1 (centres unmarked) [Example 261, 3-(5-(4-((4,4-difluoropiperidin-1-yl)methyl)-3-fluoropyridin-2-yl)-1-oxoisoindolin-2-yl)piperidine-2,6-dione]
≥ 10000 | Cc1nnc2n1CCN(Cc1ccnc(-c3ccc4c(c3)CN(C3CCC(=O)NC3=O)C4=O)c1F)C2 (centres unmarked) [Example 262, 3-(5-(3-fluoro-4-((3-methyl-5,6-dihydro-[1,2,4]triazolo[4,3-a]pyrazin-7(8H)-yl)methyl)pyridin-2-yl)-1-oxoisoindolin-2-yl)piperidine-2,6-dione]
1230 | O=C1CCC(N2Cc3cc(-c4nccc(CN5CCn6cnnc6C5)c4F)ccc3C2=O)C(=O)N1 (centres unmarked) [Example 263, 3-(5-(4-((5,6-dihydro-[1,2,4]triazolo[4,3-a]pyrazin-7(8H)-yl)methyl)-3-fluoropyridin-2-yl)-1-oxoisoindolin-2-yl)piperidine-2,6-dione]
≥ 10000 | Cc1c2c(nn1C)CCN(Cc1ccnc(-c3ccc4c(c3)CN(C3CCC(=O)NC3=O)C4=O)c1F)C2 (centres unmarked) [Example 265, 3-(5-(4-((2,3-dimethyl-2,4,6,7-tetrahydro-5H-pyrazolo[4,3-c]pyridin-5-yl)methyl)-3-fluoropyridin-2-yl)-1-oxoisoindolin-2-yl)piperidine-2,6-dione]
28 | CC(C)(O)C1CCN(Cc2ccnc(-c3ccc4c(c3F)CN(C3CCC(=O)NC3=O)C4=O)c2F)CC1 (centres unmarked) [Example 276, 3-(4-fluoro-5-(3-fluoro-4-((4-(2-hydroxypropan-2-yl)piperidin-1-yl)methyl)pyridin-2-yl)-1-oxoisoindolin-2-yl)piperidine-2,6-dione]
31.9 | O=C1CCC(N2Cc3c(ccc(-c4nccc(CN5CC[C@H](CO)C5)c4F)c3F)C2=O)C(=O)N1 (stereo partly drawn) [Example 277, 3-(4-fluoro-5-(3-fluoro-4-(((S)-3-(hydroxymethyl)pyrrolidin-1-yl)methyl)pyridin-2-yl)-1-oxoisoindolin-2-yl)piperidine-2,6-dione]
31.8 | CC(C)(O)[C@@H]1CCN(Cc2ccnc(-c3ccc4c(c3F)CN(C3CCC(=O)NC3=O)C4=O)c2F)C1 (stereo partly drawn) [Example 278, 3-(4-fluoro-5-(3-fluoro-4-(((R)-3-(2-hydroxypropan-2-yl)pyrrolidin-1-yl)methyl)pyridin-2-yl)-1-oxoisoindolin-2-yl)piperidine-2,6-dione]
34.3 | CC(C)(O)[C@H]1CCN(Cc2ccnc(-c3ccc4c(c3F)CN(C3CCC(=O)NC3=O)C4=O)c2F)C1 (stereo partly drawn) [Example 279, 3-(4-fluoro-5-(3-fluoro-4-(((S)-3-(2-hydroxypropan-2-yl)pyrrolidin-1-yl)methyl)pyridin-2-yl)-1-oxoisoindolin-2-yl)piperidine-2,6-dione]
≥ 10000 | O=C1CCC(N2Cc3c(ccc(-c4nccc(CN5CCC(O)(c6ccccc6)CC5)c4F)c3F)C2=O)C(=O)N1 (centres unmarked) [Example 280, 3-(4-fluoro-5-(3-fluoro-4-((4-hydroxy-4-phenylpiperidin-1-yl)methyl)pyridin-2-yl)-1-oxoisoindolin-2-yl)piperidine-2,6-dione]
22.1 | CC(C)(O)C1CN(Cc2ccnc(-c3ccc4c(c3F)CN(C3CCC(=O)NC3=O)C4=O)c2F)C1 (centres unmarked) [Example 281, 3-(4-fluoro-5-(3-fluoro-4-((3-(2-hydroxypropan-2-yl)azetidin-1-yl)methyl)pyridin-2-yl)-1-oxoisoindolin-2-yl)piperidine-2,6-dione]
≥ 10000 | O=C1CCC(N2Cc3c(ccc(-c4nccc(CN5CCn6c(nnc6C(F)(F)F)C5)c4F)c3F)C2=O)C(=O)N1 (centres unmarked) [Example 282, 3-(4-fluoro-5-(3-fluoro-4-((3-(trifluoromethyl)-5,6-dihydro-[1,2,4]triazolo[4,3-a]pyrazin-7(8H)-yl)methyl)pyridin-2-yl)-1-oxoisoindolin-2-yl)piperidine-2,6-dione]
≥ 10000 | O=C1CCC(N2Cc3c(ccc(-c4nccc(CN5CCc6c(ccnc6Cl)C5)c4F)c3F)C2=O)C(=O)N1 (centres unmarked) [Example 283, 3-(5-(4-((5-chloro-3,4-dihydro-2,6-naphthyridin-2(1H)-yl)methyl)-3-fluoropyridin-2-yl)-4-fluoro-1-oxoisoindolin-2-yl) piperidine-2,6-dione]
